Laboratory results taken from patent publication US4016159A, “Acylamino-cephem-carboxylic acids containing an amidino or guanidino group in the molecule” (Hoechst Aktiengesellschaft, priority 1973, dated 1977).
≈ marks a conversion by molar mass, not a printed value. Where two headings read alike, the source gives them in different places.

Assays:
Format in all cases: cell-based
[1] = system: Staphylococcus aureus 285; test: Minimum inhibition concentration (MIC), Table 1
Source text: (§1) Minimum inhibition concentration (MIC) in γ/ml
Germ: Staphylococcus aureus 285

Streptococcus pyogenes A = test: Minimum inhibition concentration (MIC), Table 3; details: Germ: Streptococcus pyogenes A; for MIC: read-out: Minimum inhibition concentration MIC
Source text: Minimum inhibition concentration MIC in γ/ml
Germ: Streptococcus pyogenes A

Streptococcus D = test: Minimum inhibition concentration (MIC), Table 4; details: Germ: Streptococcus D; for MIC: Streptococcus, read-out: Minimum inhibition concentration (MIC)
Source text: as §1

[2] = Staphylococcus aureus, 285, Germ: Staphylococcus aureus 285, read-out: Minimum inhibition concentration (MIC)
[3] = Staphylococcus aureus, 285, read-out: Minimum inhibition concentration (MIC)

| MIC [1, 2] [µg/mL] | MIC (Streptococcus pyogenes A) [µg/mL] | MIC (Streptococcus D) [µg/mL] | Compound | also measured |
| --- | --- | --- | --- | --- |
| 0.5 to 1.25 (≈ 0.915 to 2.29 µM) | 0.008 to 0.0156 (≈ 0.0146 to 0.0285 µM) |  | CCCCc1nnc(SCC2=C(C(=O)O)N3C(=O)C(NC(=O)COc4ccc(C(=N)N)cc4)C3SC2)o1 (stereo not shown) [Example 66, 3-[(5-n-butyl-1,3,4-oxadiazole-2-yl)-thiomethyl]-7-(4-amidinophenoxyacetamido)-Δ 3-cephem-4-carboxylic acid] |  |
| 100 (≈ 286 µM) |  |  | CC1(C)S[C@@H]2[C@H](NC(=O)[C@H](N)c3ccccc3)C(=O)N2[C@H]1C(=O)O [Ampicillin, reference compound] |  |
| 0.5 to 1.25 (≈ 0.944 to 2.36 µM) | 0.000391 to 0.0078 (≈ 0.000738 to 0.0147 µM) | 10 to 50 (≈ 18.9 to 94.4 µM) | Cc1csc(SCC2=C(C(=O)O)N3C(=O)C(NC(=O)Cc4ccc(C5=NCCN5)cc4)C3SC2)n1 (stereo not shown) [Example 10, 3-[(4-methyl-thiazole-2-yl)-thiomethyl]-7-[4-(imidazoline-2-yl)-phenylacetamido]-Δ 3-cephem-4-carboxylic acid] |  |
| 0.5 to 1.25 (≈ 0.918 to 2.3 µM) |  | 10 to 50 (≈ 18.4 to 91.8 µM) | Cc1nnc(SCC2=C(C(=O)O)N3C(=O)C(NC(=O)COc4ccc(C5=NCCCN5)cc4)C3SC2)o1 (stereo not shown) [Example 76, 3-[(5-methyl-1,3,4-oxadiazole-2-yl)-thiomethyl]-7-[4-(1,4,5,6-tetrahydropyrimide-2-yl)-phenoxy-acetamido]-Δ 3-cephem-4-carboxylic acid] |  |
| 1.6 to 2.5 (≈ 2.94 to 4.6 µM) |  | 10 to 50 (≈ 18.4 to 92 µM) | Cc1csc(SCC2=C(C(=O)O)N3C(=O)C(NC(=O)Cc4ccc(C5=NCCCN5)cc4)C3SC2)n1 (stereo not shown) [Example 15, 3-[(4-methyl-thiazole-2-yl)-thiomethyl]-7-[4-(1,4,5,6-tetrahydropyrimide-2-yl)-phenylacetamido]-Δ 3-cephem-4-carboxylic acid] |  |
| 1.6 to 2.5 (≈ 3.12 to 4.88 µM) |  |  | Cn1ccnc1SCC1=C(C(=O)O)N2C(=O)C(NC(=O)Cc3ccc(C4=NCCN4)cc3)C2SC1 (stereo not shown) [Example 123, 3-[(1-methylimidazole-2-yl)-thiomethyl]-7-[4-(imidazoline-2-yl)-phenylacetamido]-Δ 3-cephem-4-carboxylic acid] |  |
|  |  | 10 to 50 (≈ 18.4 to 91.8 µM) | Cn1nnnc1SCC1=C(C(=O)O)N2C(=O)C(NC(=O)COc3ccc(C4=NCCCN4)cc3)C2SC1 (stereo not shown) [Example 93, 3-[(1-methyl-1-H-tetrazol-5-yl)-thiomethyl]-7-[4-(1,4,5,6-tetrahydropyrimide-2-yl)-phenoxyacetamido-]-Δ3-cephem-4-carboxylic acid] |  |
|  |  | 100 (≈ 220 µM) | Cc1nnc(SCC2=C(C(=O)O)N3C(=O)[C@@H](NC(=O)Cn4cnnn4)[C@H]3SC2)s1 [Cephazolin, reference compound] |  |
| 0.156 to 0.391 (≈ 0.293 to 0.734 µM) | 0.008 to 0.0156 (≈ 0.015 to 0.0293 µM) |  | CCCc1nnc(SCC2=C(C(=O)O)N3C(=O)C(NC(=O)COc4ccc(C(=N)N)cc4)C3SC2)o1 (stereo not shown) [Example 40, 3-[(5-n-propyl-1,3,4-oxadiazole-2-yl)-thiomethyl]-7-(4-amidinophenoxyacetamido)-Δ 3-cephem-4-carboxylic acid] |  |
| 0.156 to 0.391 (≈ 0.309 to 0.775 µM) | 0.000391 to 0.0078 (≈ 0.000775 to 0.0155 µM) |  | Cc1nnc(SCC2=C(C(=O)O)N3C(=O)C(NC(=O)Cc4ccc(C(=N)N)cc4)C3SC2)s1 (stereo not shown) [Example 45, 3-[(5-methyl-1,3,4-thiadiazole-2-yl)-thiomethyl]-7-(4-amidinophenylacetamido)-Δ 3-cephem-4-carboxylic acid] |  |
| 0.5 to 1.25 (≈ 0.942 to 2.36 µM) | 0.008 to 0.0156 (≈ 0.0151 to 0.0294 µM) |  | Cc1nnc(SCC2=C(C(=O)O)N3C(=O)C(NC(=O)COc4ccc(C5=NCCN5)cc4)C3SC2)o1 (stereo not shown) [Example 74, 3-[(5-methyl-1,3,4-oxadiazole-2-yl)-thiomethyl]-7-[4-(imidazoline-2-yl)-phenoxyacetamido]-Δ 3-cephem-4-carboxylic acid] |  |

Further lines, the compound ahead of its results:

| Compound | MIC [1, 2] [µg/mL] | MIC (Streptococcus pyogenes A) [µg/mL] | MIC (Streptococcus D) [µg/mL] | also measured |
| --- | --- | --- | --- | --- |
| CCc1csc(SCC2=C(C(=O)O)N3C(=O)C(NC(=O)Cc4ccc(C5=NCCN5)cc4)C3SC2)n1 (stereo not shown) [Example 115, 3-[(4-ethyl-thiazole-2-yl)-thiomethyl]-7-[4-(imidazoline-2-yl)-phenylacetamido]-Δ3-cephem-4-carboxylic acid] | 1.6 to 2.5 (≈ 2.94 to 4.6 µM) | 0.000391 to 0.0078 (≈ 0.000719 to 0.0143 µM) | 10 to 50 (≈ 18.4 to 92 µM) |  |
| COc1cc(C(=N)N)ccc1OCC(=O)NC1C(=O)N2C(C(=O)O)=C(CSc3nccs3)CSC12 (stereo not shown) [Example 129, 3-[(1,3-thiazole-2-yl)thiomethyl]-7-(4-amidino-2-methoxy-phenoxyacetamido)-Δ3-cephem-4-carboxylic acid] | 0.156 to 0.391 (≈ 0.291 to 0.73 µM) | 0.008 to 0.0156 (≈ 0.0149 to 0.0291 µM) |  |  |
| CCCc1nnc(SCC2=C(C(=O)O)N3C(=O)C(NC(=O)COc4ccc(C5=NCCN5)cc4)C3SC2)s1 (stereo not shown) [Example 37, 3-[(5-n-propyl-1,3,4-thiadiazole-2-yl)-thiomethyl]-7-[4-(imidazoline-2-yl)-phenoxyacetamido]-Δ 3-cephem-4-carboxylic acid] | 0.5 to 1.25 (≈ 0.87 to 2.18 µM) | 0.000391 to 0.0078 (≈ 0.00068 to 0.0136 µM) | 0.196 to 6.25 (≈ 0.341 to 10.9 µM) |  |
| COc1cc(C(=N)N)ccc1OCC(=O)NC1C(=O)N2C(C(=O)O)=C(CSc3nc(C)cs3)CSC12 (stereo not shown) [Example 130, 3-[(4-methyl-1,3-thiazole-2-yl)-thiomethyl]-7-(4-amidino-2-methoxy-phenoxyacetamido)-Δ3-cephem-4-carboxylic acid] | 0.156 to 0.391 (≈ 0.284 to 0.711 µM) | 0.008 to 0.0156 (≈ 0.0146 to 0.0284 µM) |  |  |
| O=C(Cc1ccc(C2=NCCCN2)cc1)NC1C(=O)N2C(C(=O)O)=C(CSC3=NNC(c4ccccc4)=CS3)CSC12 (stereo not shown) [Example 99, 3-[(5-phenyl-4H-1,3,4-thiadiazine-2-yl)-thiomethyl]-7[4-(1,4,5,6-tetrahydropyrimide-2-yl)-phenylacetamido]-Δ3-cephem-4-carboxylic acid] | 0.5 to 1.25 (≈ 0.805 to 2.01 µM) | 0.008 to 0.0156 (≈ 0.0129 to 0.0251 µM) | 10 to 50 (≈ 16.1 to 80.5 µM) |  |
| N=C(N)c1ccc(CC(=O)NC2C(=O)N3C(C(=O)O)=C(CSc4nnc(N)s4)CSC23)cc1 (stereo not shown) [Example 59, 3-[(5-amino-1,3,4-thiadiazole-2-yl)-thiomethyl]-7-(4-amidinophenylacetamido)-Δ 3-cephem-4-carboxlic acid] | 0.5 to 1.25 (≈ 0.989 to 2.47 µM) | 0.000391 to 0.0078 (≈ 0.000773 to 0.0154 µM) | 10 to 50 (≈ 19.8 to 98.9 µM) |  |
| CCc1nnc(SCC2=C(C(=O)O)N3C(=O)C(NC(=O)Cc4ccc(C5=NCCCN5)cc4)C3SC2)[nH]1 (stereo not shown) [Example 95, 3-[(5-ethyl-triazole-2-yl)-thiomethyl]-7-[4-(1,4,5,6-tetrahydro-pyrimide-2-yl)-phenylacetamido]-Δ3-cephem-4-carboxylic acid] |  |  |  | Minimum inhibition concentration (MIC) ([1]; Germ: Staphylococcus aureus 285): 1.6 to 2.5 µg/mL; Minimum inhibition concentration (MIC) (Streptococcus pyogenes A): 0.008 to 0.0156 µg/mL; Minimum inhibition concentration (MIC) (Streptococcus D): 10 to 50 µg/mL |
| CCCc1nnc(SCC2=C(C(=O)O)N3C(=O)C(NC(=O)Cc4ccc(C5=NCCCN5)cc4)C3SC2)s1 (stereo not shown) [Example 79, 3-[(5-n-propyl-1,3,4-thiadiazole-2-yl)-thiomethyl]-7-[4-(1,4,5,6-tetrahydropyrimide-2-yl)-phenylacetamido]-Δ 3-cephem-4-carboxylic acid] | 0.5 to 1.25 (≈ 0.873 to 2.18 µM) | 0.008 to 0.0156 (≈ 0.014 to 0.0272 µM) | 10 to 50 (≈ 17.5 to 87.3 µM) |  |
| CCCCc1nnc(SCC2=C(C(=O)O)N3C(=O)C(NC(=O)Cc4ccc(C5=NCCCN5)cc4)C3SC2)s1 (stereo not shown) [Example 77, 3-[(5-n-butyl-1,3,4-thiadiazole-2-yl)-thiomethyl]-7-[4-(1,4,5,6-tetrahydropyrimide-2-yl)-phenylacetamido]-Δ 3-cephem-4-carboxylic acid] | 0.5 to 1.25 (≈ 0.852 to 2.13 µM) | 0.008 to 0.0156 (≈ 0.0136 to 0.0266 µM) |  |  |
| Cc1nnc(SCC2=C(C(=O)O)N3C(=O)C(NC(=O)Cc4ccc(C5=NCCCN5)cc4)C3SC2)o1 (stereo not shown) [Example 78, 3-[(5-methyl-1,3,4-oxadiazole-2-yl)-thiomethyl]-[4-(1,4,5,6-tetrahydropyrimide-2-yl)-phenylacetamido]-Δ 3-cephem-4-carboxylic acid] | 0.5 to 1.25 (≈ 0.946 to 2.36 µM) | 0.008 to 0.0156 (≈ 0.0151 to 0.0295 µM) |  |  |
| CC1(C)S[C@@H]2[C@H](NC(=O)COc3ccccc3)C(=O)N2[C@H]1C(=O)O [Penicillin-V-K, reference compound] |  |  |  | MIC [1, 3]: 125 µg/mL (≈ 357 µM) |
| N=C(N)c1ccc(CC(=O)NC2C(=O)N3C(C(=O)O)=C(CSC4=NCCS4)CSC23)cc1 (stereo not shown) [Example 90, 3-[2-thiazoline-2-yl-thiomethyl]-7-[4-amidino-phenylacetamido]-Δ 3-cephem-4-carboxylic acid] | 0.156 to 0.391 (≈ 0.317 to 0.795 µM) | 0.000391 to 0.0078 (≈ 0.000795 to 0.0159 µM) |  |  |
| CC1(C)S[C@@H]2[C@H](NC(=O)Cc3ccccc3)C(=O)N2[C@H]1C(=O)O [Penicillin-G-Na, reference compound] |  |  |  | MIC [1, 3]: 125 µg/mL (≈ 374 µM) |
| Cc1csc(SCC2=C(C(=O)O)N3C(=O)C(NC(=O)Cc4ccc(NC(=N)N)cc4)C3SC2)n1 (stereo not shown) [Example 7] | 0.5 to 1.25 (≈ 0.964 to 2.41 µM) |  | 10 to 50 (≈ 19.3 to 96.4 µM) |  |
| Cc1n[nH]c(SCC2=C(C(=O)O)N3C(=O)C(NC(=O)Cc4ccc(C5=NCCCN5)cc4)C3SC2)n1 (stereo not shown) [Example 17, 3-[(methyl-1,2,4,-triazole-3-yl)-thiomethyl]-7-[4-(1,4,5,6-tetrahydropyrimide-2-yl)-phenylacetamido]-Δ 3-cephem-4-carboxylic acid] | 1.6 to 2.5 (≈ 3.03 to 4.74 µM) |  | 10 to 50 (≈ 19 to 94.8 µM) |  |
| CCc1nnc(SCC2=C(C(=O)O)N3C(=O)C(NC(=O)Cc4ccc(C5=NCCCN5)cc4)C3SC2)n1N (stereo not shown) [Example 104, 3-[(4-amino-5-ethyl-1,2,4-triazole-3-yl)-thiomethyl]-7-[4-(1,4,5,6-tetrahydropyrimide-2-yl)-phenylacetamido-] -Δ3-cephem-4-carboxylic acid] | 1.6 to 2.5 (≈ 2.87 to 4.49 µM) |  |  |  |
| Cn1nnnc1SCC1=C(C(=O)O)N2C(=O)C(NC(=O)Cc3ccc(C4=NCCCN4)cc3)C2SC1 (stereo not shown) [Example 87, 3-[(1-methyl-1H-tetrazole-5-yl)-thiomethyl]-7-[4-(1,4,5,6-tetrahydropyrimide-2-yl)-phenylacetamido]-Δ 3-cephem-4-carboxylic acid] | 1.6 to 2.5 (≈ 3.03 to 4.73 µM) |  |  |  |
| CCCCc1nnc(SCC2=C(C(=O)O)N3C(=O)C(NC(=O)COc4ccc(C(=N)N)cc4)C3SC2)s1 (stereo not shown) [Example 67, 3-[(5-n-butyl-1,3,4-thiadiazole-2-yl)-thiomethyl]-7-(4-amidinophenoxyacetamido)-Δ 3-cephem-4-carboxylic acid] | 0.5 to 1.25 (≈ 0.889 to 2.22 µM) |  |  |  |
| N=C(N)c1ccc(OCC(=O)NC2C(=O)N3C(C(=O)O)=C(CSc4nnc(-c5ccccc5)o4)CSC23)cc1 (stereo not shown) [Example 48, 3-[(5-phenyl-1,3,4-oxadiazole-2-yl)-thiomethyl]-7-(4-amidinophenoxyacetamido)-Δ 3-cephem-4-carboxylic acid] | 0.156 to 0.391 (≈ 0.275 to 0.69 µM) |  |  | Minimum inhibition concentration (MIC) (Streptococcus D): 0.196 to 6.25 µg/mL |
